Data published in article PMC11301636, “Supramolecular delivery of dinuclear ruthenium and osmium MCU inhibitors” (Inorganic Chemistry Frontiers, 2024).

Key:
[1] = target: T1, mitochondrial calcium uniporter (MCU) (Homo sapiens, UniProt Q8NE86); assay: mCa2+ uptake inhibition in digitonin-permeabilized HEK293T cells; type: cell-based
T1 sequence (Q8NE86 51-351): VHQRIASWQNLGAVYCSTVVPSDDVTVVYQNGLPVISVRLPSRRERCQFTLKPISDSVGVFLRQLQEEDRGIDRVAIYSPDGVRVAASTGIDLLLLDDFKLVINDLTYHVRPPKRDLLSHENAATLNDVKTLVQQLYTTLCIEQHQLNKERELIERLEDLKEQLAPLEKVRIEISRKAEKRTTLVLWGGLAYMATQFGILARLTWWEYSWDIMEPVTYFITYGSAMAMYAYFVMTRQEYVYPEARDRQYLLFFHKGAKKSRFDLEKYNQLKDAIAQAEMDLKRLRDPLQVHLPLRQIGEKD

[2] = target: T1, mitochondrial calcium uniporter (MCU); assay: mCa2+ uptake inhibition in digitonin-permeabilized HEK293T cells (Calcium Green 5N); type: cell-based

An IC50 [1] of 90.9 ± 1.3 nM and an IC50 [2] of 5.7 ± 0.3 nM were found for Os245 in this work.
